By Ki is commonly meant a measure of affinity in units of concentration, obtained from inhibition or displacement.

This passage reports Ki results from patent US8183252B2, “Heterocyclic aspartyl protease inhibitors” (Schering Corporation, priority 2007, dated 2012).

The test addresses T1, human BACE1 (sproBACE1) (Homo sapiens, UniProt P56817).
T1 construct: sBACE1, corresponding to amino acids 1-454; made in house; host or cells: Sf9 insect cells (baculovirus), secreted into the medium
Description: BACE-1 Peptide Hydrolysis Assay (HTRF). Type of test: biochemical. Conditions: read-out: BACE-1 Ki. An excerpt: A HindIII/PmeI fragment from pCDNA4-sBACE1myc/His was blunt ended using Klenow and subcloned into the Stu I site of PFASTBACI(A) (Invitrogen). A sBACE1mycHis recombinant bacmid was generated by transposition in DH10Bac cells (GIBCO/BRL). Subsequently, the sBACE1mycHis bacmid construct was transfected into sf9 cells using CellFectin (Invitrogen, San Diego, Calif.) in order to generate recombinant baculovirus. […] Five milliliters of high titer plaque purified sBACEmyc/His virus was used to infect 1 L of logarithmically growing sf9 cells for 72 hours. Intact cells were pelleted by centrifugation at 3000×g for 15 minutes. The supernatant, containing secreted sBACE1, was collected and diluted 50% v/v with 100 mM HEPES, pH 8.0. The diluted medium was loaded onto a Q-sepharose column. The Q-sepharose column was washed with Buffer A (20 mM HEPES, pH 8.0, 50 mM NaCl).
Proteins, were eluted from the Q-sepharose column with Buffer B (20 mM HEPES, pH 8.0, 500 mM NaCl). The protein peaks from the Q-sepharose column were pooled and loaded onto a Ni-NTA agarose column. The Ni-NTA column was then washed with Buffer C (20 mM HEPES, pH 8.0, 500 mM NaCl). Bound proteins were then eluted with Buffer D (Buffer C+250 mM imidazole).
Reactions were initiated by addition of substrate in a 5 μl aliquot resulting in a total volume of 25 μl. After 3 hr at 30° C. reactions were terminated by addition of an equal volume of 2× stop buffer containing 50 mM Tris-HCl pH 8.0, 0.5 M KF, 0.001% Brij-35, 20 μg/ml SA-XL665 (cross-linked allophycocyanin protein coupled to streptavidin; CIS-Bio International, France) (0.5 μg/well). Plates were shaken briefly and spun at 1200×g for 10 seconds to pellet all liquid to the bottom of the plate before the incubation.
Y=Bottom+(Top-Bottom)/(1+10^((LogEC50−X)*Hill Slope)); X is the logarithm of concentration of I, Y is the percent change in ratio and Y starts at bottom and goes to top with a sigmoid shape.
For orientation: TR-FRET usually uses a lanthanide donor and a delayed reading to cut background.

Structures are written as SMILES. A value given as a limit tells only on which side of the number the result lay.

T1 sequence (P56817 22-454): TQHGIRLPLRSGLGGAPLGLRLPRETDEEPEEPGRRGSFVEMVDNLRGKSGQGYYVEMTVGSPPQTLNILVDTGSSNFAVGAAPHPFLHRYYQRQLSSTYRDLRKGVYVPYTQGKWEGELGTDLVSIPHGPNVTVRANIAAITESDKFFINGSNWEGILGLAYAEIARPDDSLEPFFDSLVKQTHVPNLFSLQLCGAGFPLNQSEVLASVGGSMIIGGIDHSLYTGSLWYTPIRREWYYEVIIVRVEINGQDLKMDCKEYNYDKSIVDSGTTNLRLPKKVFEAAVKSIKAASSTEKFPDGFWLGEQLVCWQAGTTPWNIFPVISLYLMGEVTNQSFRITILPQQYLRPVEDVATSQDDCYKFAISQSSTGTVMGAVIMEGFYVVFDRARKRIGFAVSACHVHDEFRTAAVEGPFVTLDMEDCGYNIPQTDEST

With `CN1OCC(C)(c2cc(-c3cccc(C#N)c3)cs2)NC1=N` (centres unmarked), the Ki is < 5 µM.
As for `CN1OCC(C)(c2cccc(-c3cccc(C#N)c3)c2)NC1=N` (centres unmarked), the figure is < 5 µM; as for `CC(=O)N1CCC(CN2C(=N)N[C@@](c3cccc(-c4cncc(Br)c4)c3)(C3CC3)C2=O)CC1`, < 5 µM; as for `CC1(c2cccc(-c3cccc(Cl)c3)c2)NC(=N)N(CC2CCN(C(=O)c3ccccc3)C2)C1=O` (centres unmarked), < 5 µM.
In the case of `N=C1NC(c2ccccc2)(c2ccccc2)C(=O)N1CC1CCN(C(=O)Nc2cccc(Cl)c2)CC1` it was < 5 µM.
With `N=C1NC(c2ccccc2)(c2ccccc2)C(=O)N1CC1CCN(C(=O)Nc2cccc(F)c2)CC1`, the Ki is < 5 µM.
On to `Cc1c(-c2ccc(F)c(C#N)c2)csc1[C@]1(C)CC(=O)N(C)C(=N)N1`, for which the Ki is < 5 µM.
In the case of `C[C@H]1C(=O)N(C)C(=N)N[C@]1(C)c1cc(-c2ccc(F)c(C#N)c2)cs1` it was < 5 µM; in that of `CN1C(=N)NC(CCc2ccccc2)(CC2CCCC(Nc3ccccn3)C2)C1=O` (centres unmarked), < 5 µM.
`Cc1ccc(CN2C(=N)NC(c3ccccc3)(c3ccccc3)C2=O)cc1`: the Ki is < 5 µM.
In the case of `CN1C(=N)N[C@](C)(C[C@H]2CCC[C@@H](Nc3cnc4ccccc4n3)C2)C1=O` it was < 5 µM; in that of `N=C1NC(c2ccccc2)(c2ccccc2)C(=O)N1CC1CCOCC1`, < 5 µM; in that of `N=C1NC(c2ccccc2)(c2ccccc2)C(=O)N1Cc1cccc(NC(=O)Cc2cccs2)c1`, < 5 µM.
As for `CN1C(=N)N[C@](C)(c2ccc(-c3cc(Cl)cc(C#N)c3)s2)[C@@H](C2CC2)C1=O`, the figure is < 5 µM; as for `CN1C(=N)N[C@](C)(c2cc(-c3cc(F)cc(C#N)c3)nn2C)CC1=O`, < 5 µM; as for `CN1C(=N)N[C@](C)(c2nc(-c3cccc(C#N)c3)cs2)CC1=O`, < 5 µM.
Consider `CN1C(=N)N[C@](C)(c2csc3c(-c4cccc(C#N)c4)cccc23)CC1=O`, for which the Ki is < 5 µM.
Regarding `CN1C(=N)N[C@](C)(c2cc(-c3cc(C#N)ccc3O)cs2)CC1=O`, the Ki is < 5 µM.
In the case of `COc1cc(C#N)cc(-c2csc([C@]3(C)CC(=O)N(C)C(=N)N3)c2)c1` it was < 5 µM; in that of `CN1C(=N)N[C@](C)(c2cnc(-c3cccc(C#N)c3)s2)CC1=O`, < 5 µM.
In the case of `CN1C(=N)N[C@](C)(c2cc(-c3cccc(C#N)c3)nn2C)CC1=O`, the Ki is < 5 µM.
Consider `CN1C(=N)NC(C)(c2cc(-c3cccc(C#N)c3)cs2)C(CCN2CCCCC2)C1=O` (centres unmarked), for which the Ki is < 5 µM.
As to `CCC[C@H]1C(=O)N(C)C(=N)N[C@]1(C)c1cc(-c2cccc(C#N)c2)cs1`, the Ki is < 5 µM.
As for `COc1ccc2c(c1)CC[C@@]21C(=O)N(C)C(=N)N[C@]1(C)c1cc(-c2cccc(C#N)c2)cs1`, the Ki was < 5 µM.
On to `CC1(c2cccc(-c3cccc(Cl)c3)c2)NC(=N)N(CC2CCN(C(=O)CC3CCCCC3)C2)C1=O` (centres unmarked), for which the Ki was < 5 µM.
On to `CC1(c2cccc(-c3cccc(Cl)c3)c2)NC(=N)N(CC2CCN(C(=O)C3CCCCC3)C2)C1=O` (centres unmarked), for which the inhibition constant Ki was < 5 µM.
`C=C1C(=O)N(C)C(=N)N[C@]1(C)c1cccc(-c2cccc(C#N)c2)c1`: the Ki was < 5 µM.
Regarding `CN1C(=N)N[C@](C)(c2cc(-c3cc(C#N)ccc3Cl)c3sccc3c2)CC1=O`, the Ki was < 5 µM.
As to `Cc1cc(-c2cccc(C3(C4CC4)NC(=N)N(C)C3=O)c2)ccn1` (centres unmarked), the Ki is < 5 µM.
In the case of `CC(C)C1(c2cccc(Br)c2)NC(=N)N(C)C1=O` (centres unmarked) it was < 5 µM; in that of `CN1OCC(C)(c2cccc(-c3cccc(Cl)c3)c2)NC1=N` (centres unmarked), < 5 µM.
For `CN1C(=N)NC(c2ccccc2)(c2cccc(-c3cccc(CO)c3)c2)C1=O` (centres unmarked), the inhibitory constant (Ki) is < 5 µM.
On to `CN1OCC(C)(c2cccc(-c3cc(Cl)cc(Cl)c3)c2)NC1=N` (centres unmarked), for which the Ki was < 5 µM.
With `Cc1c(-c2ccc(F)c(C#N)c2)sc([C@@]2(C)CC(=O)N(C)C(=N)N2)c1Cl`, the Ki was < 5 µM.
In the case of `CN1C(=N)NC(c2ccccc2)(c2cc(-c3ccc4c(c3)OCO4)cs2)C1=O` (centres unmarked) it was < 5 µM; in that of `CN1C(=N)NC(C)(c2ccc(C#N)s2)C(c2ccc(Cl)c(Cl)c2)C1=O` (centres unmarked), < 5 µM.
Consider `CN1C(=N)NC(C)(c2cc(-c3ccc(F)c(C#N)c3)cs2)C(Br)C1=O` (centres unmarked), for which the Ki was < 5 µM.
Turning to `CN1C(=N)N[C@](C)(c2cc(-c3cncc(C#N)c3)cs2)[C@H](C2CCC2)C1=O`, the Ki is < 5 µM.
Regarding `CN1C(=N)N[C@](C)(c2cc(C#N)cs2)[C@@H](c2ccc(C3CC3)cc2)C1=O`, the Ki is < 5 µM.
In the case of `CN1C(=N)N[C@@](c2cccc(-c3cccnc3F)c2)(C2CC2)C1=O`, the Ki is < 5 µM.
Take `CN1C(=N)N[C@](C)(c2ccc(-c3cccc(C(F)(F)F)c3)s2)[C@@H](C2CC2)C1=O`: the Ki was < 5 µM.
With `CC[C@H]1C(=O)N(C)C(=N)N[C@]1(C)c1cccc(-c2cccc(OC)c2)c1`, the Ki was < 5 µM.
As for `CN1C(=N)N[C@](CCC2CCCCC2)(C[C@H]2CCC[C@H](N3CC[C@H](O)C3)C2)C1=O`, the figure is < 5 µM; as for `CN1C(=N)N[C@@](c2cccc(-c3cc(Cl)cnc3F)c2)(C2CC2)C1=O`, < 5 µM; as for `CN1C(=N)N[C@](C)(c2c(F)cc(F)cc2F)[C@@H](c2ccc(C(C)(F)F)cc2)C1=O`, < 5 µM.
Take `CCC1(c2cc(-c3cccnc3)cs2)CC(=O)N(C)C(=N)N1` (centres unmarked): the Ki was < 5 µM.
Consider `CN1C(=N)N[C@](C)(c2ccc3c(cnn3CC3CCCC3)c2)CC1=O`, for which the Ki was < 5 µM.
As for `CN1C(=N)N[C@](C)(c2c(F)cccc2F)[C@@H](c2ccc(C(F)(F)F)cc2)C1=O`, the figure is < 5 µM; as for `CN1C(=N)N[C@](C)(c2sccc2Cl)CC1=O`, < 5 µM; as for `CN1C(=N)N[C@](C)(c2cccc(-c3cccnc3F)c2)CC1=O`, < 5 µM.
As for `CC(C)Oc1cc(Cl)cc(-c2csc([C@]3(C)CC(=O)N(C)C(=N)N3)c2)c1`, the Ki was < 5 µM.
As for `CN1C(=N)N[C@](C)(c2cc(-c3cncc(Cl)n3)cs2)CC1=O`, the figure is < 5 µM; as for `CN1C(=N)N[C@](C)(c2cc(-c3ccc(Cl)s3)cs2)CC1=O`, < 5 µM.
In the case of `CN1C(=N)N[C@](C)(c2ncc(-c3cccc(Br)c3)s2)CC1=O` it was < 5 µM.
`CN1C(=N)N[C@](C)(c2ncc(-c3cccc(Cl)c3)s2)CC1=O`: the Ki was < 5 µM.
Take `CCc1cccc(-c2cc([C@]3(C)CC(=O)N(C)C(=N)N3)nn2C)c1`: the Ki is < 5 µM.
On to `COc1ccc(Cl)c(-c2cc([C@]3(C)CC(=O)N(C)C(=N)N3)cc3ccsc23)c1`, for which the Ki was < 5 µM.
`CC(C)(C)CC(=O)Nc1cccc(CN2C(=N)NC(c3ccccc3)(c3ccccc3)C2=O)c1`: the Ki is < 5 µM.
Consider `N=C1NC(c2ccccc2)(c2ccccc2)C(=O)N1Cc1cccc(NS(=O)(=O)C2CC2)c1`, for which the Ki was < 5 µM.
In the case of `CCCS(=O)(=O)Nc1cccc(CN2C(=N)NC(c3ccccc3)(c3ccccc3)C2=O)c1`, the Ki was < 5 µM.
In the case of `CCS(=O)(=O)Nc1cccc(CN2C(=N)NC(c3ccccc3)(c3ccccc3)C2=O)c1` it was < 5 µM; in that of `CC(=O)N[C@@H]1CCC[C@H](C[C@@]2(CCc3ccccc3)NC(=N)N(C)C2=O)C1`, < 5 µM.
With `CN1C(=N)N[C@](CCC2CCCCC2)(C[C@H]2CCC[C@@H](NC(=O)C3CCCC3)C2)C1=O`, the Ki was < 5 µM.
In the case of `CN1C(=N)N[C@](CCC2CCCCC2)(C[C@H]2CCC[C@@H](NC(=O)c3ccc4ccccc4n3)C2)C1=O`, the inhibition constant Ki was < 5 µM.
On to `CN1C(=N)N[C@](CCC2CCCCC2)(C[C@H]2CCC[C@@H](NC(=O)Cc3ccc4ccccc4c3)C2)C1=O`, for which the Ki is < 5 µM.
As for `CN1C(=N)NC(C)(c2cccc(-c3cc(Cl)ccc3CNC(=O)c3cccnc3)c2)C1=O` (centres unmarked), the Ki is < 5 µM.
Consider `CN1C(=N)N[C@](CCC2CCCCC2)(C[C@H]2CCC[C@@H](NC(=O)NC(=O)c3ccccc3)C2)C1=O`, for which the Ki was < 5 µM.
In the case of `CCCC(=O)N1CCC[C@@H](CN2C(=N)NC(c3ccccc3)(c3ccccc3)C2=O)C1`, the Ki was < 5 µM.
Take `CCCS(=O)(=O)N1CCC[C@H](CN2C(=N)NC(c3ccccc3)(c3ccccc3)C2=O)C1`: the Ki is < 5 µM.
Regarding `N=C1NC(c2ccccc2)(c2ccccc2)C(=O)N1CC1CCN(C(=O)Cc2cccnc2)CC1`, the Ki is < 5 µM.
Turning to `CN1C(=N)N[C@](C)(c2ccc3c(ccn3C)c2)CC1=O`, the Ki is < 5 µM.
Regarding `CN1C(=N)N[C@](C)(c2ccc3c(c2)c(-c2cccs2)cn3C)CC1=O`, the Ki was < 5 µM.
With `CN1C(=N)N[C@](C)(c2csc3c(-c4ccsc4)cccc23)CC1=O`, the Ki is < 5 µM.
For the molecule `COc1cccc(-c2sc([C@]3(C)CC(=O)N(C)C(=N)N3)cc2C)c1`, the Ki is < 5 µM.
